Two compounds from paper PMC9728921, “Characterization of a KDM5 small molecule inhibitor with antiviral activity against hepatitis B virus” (PLOS ONE, 2022) can be followed below.

The target in experiment [1] is T1, PRMT4 (Homo sapiens, UniProt Q86X55).
T1 construct: 2-608
As to the kind of experiment: Histone methyltransferase enzymatic assay, PRMT4. Type of experiment: biochemical. To be noted: enzyme conc. 100 nM. As for the experimental part: Histone methyltransferase assays were performed in 96-well half-area optiplates (PerkinElmer) at room temperature. All concentrations are final unless noted otherwise. Compounds were serially diluted in DMSO and the final DMSO concentration was 1%. A 24 μL reaction mixture contained compound, enzyme, 200 nM of nucleosome or histone substrate, 400 nM ^3H-SAM (83.1 Ci/mmol), 50 mM Tris-HCl (pH 8.0), 50 mM NaCl, 5 mM MgCl2, 1 mM DTT, and 0.01% Tween-20. The plate was sealed, mixed on a Titramax plate shaker at 1200 rpm for 30 sec, and incubated at room temperature for 60 min. The reaction was quenched by addition of 24 μL mixture containing 5 mg/mL PVT-PEI beads and 300 μM unlabeled SAM in water. The plate was sealed, mixed as previously noted, incubated overnight, and read on a TopCount plate reader (PerkinElmer).
Data was analyzed using GraphPad Prism 6.0 (La Jolla, CA). […] IC50 values were calculated as an average of at least two independent experiments.

Experiment [2] concerns the target HMT or HDAC enzymes. As to the kind of experiment: Panel of HMT and HDAC enzymes. The experiment is classed as biochemical. Conditions: no measurable inhibitory activity; read-out: IC50 against any of the HMT or HDAC enzymes tested. The method, then:
Histone methyltransferase assays were performed in 96-well half-area optiplates (PerkinElmer) at room temperature. All concentrations are final unless noted otherwise. Compounds were serially diluted in DMSO and the final DMSO concentration was 1%. […] The plate was sealed, mixed on a Titramax plate shaker at 1200 rpm for 30 sec, and incubated at room temperature for 60 min. […] The plate was sealed, mixed as previously noted, incubated overnight, and read on a TopCount plate reader (PerkinElmer). The HDAC-1 histone deacetylase assay was tested using the FLUOR DE LYS platform ([…]). Inhibition of SIRT-1 histone deacetylase was tested with the AlphaLISA detection system. All assays were conducted at room temperature with a final DMSO concentration of 1%. […] After a 60-minute incubation, the reaction was quenched with 10 μL AlphaLISA H3K4-specific Acceptor beads (1:200) in Epigenetics Buffer, and the reaction mixture was incubated for 60 min. The Donor beads were diluted 1:200 into Epigenetics Buffer in the dark and 10 μL of this mixture was added to each well and incubated for another 60 min in the dark. The assay plates were read on an Enspire plate reader (PerkinElmer) using a standard AlphaLISA program. […] Data was analyzed using GraphPad Prism 6.0 (La Jolla, CA). […] IC50 values were calculated as an average of at least two independent experiments.

Experiment [3] relates to HBV cccDNA. As to the kind of experiment: cccDNA levels by Southern blot in HBV-infected PHH. The experiment is classed as cell-based, Hepatitis B virus. Conditions: 1 or 10 µM every three to four days for 14 days. As for the experimental part: PHH were plated in 24-well plates at 350,000–400,000 live cells per well and infected with HBV genotype D as described above. […] DNA was isolated from PHH using a MasterPure Complete DNA Purification kit (Epicentre, Madison, WI; MC85200) according to the manufacturer’s instructions, but omitting ProteinaseK or RNaseA treatment. After isolation, DNA was treated with T5 exonuclease (New England Biolabs, Ipswich, MA; M0363S) according to the manufacturer’s instructions.
cccDNA and host mitochondrial DNA (ND4) levels were examined by Southern blot using branched DNA signal amplification (bDNA) method as previously described. All probes and reagents were purchased from Thermo Fisher Scientific.
PHH were infected with HBV for three days prior to initiation of GS-5801 treatment. […] Total DNA was isolated, treated with T5 exonuclease to reduce levels of relaxed circular HBV DNA (rcDNA), and probed for cccDNA and mitochondrial DNA (Mt ND4: NADH-ubiquinone oxidoreductase chain 4) by Southern blot.

In experiment [4] the test system is HBV (genotype C, GTC). The experiment in a line: HBV mouse efficacy model (uPA-SCID mice with humanized livers), serum HBV DNA and HBsAg. The experiment is classed as in vivo. Conditions: 30 or 100 mg/kg p.o. qd x 7d, one week on one week off, 56 days. As for the experimental part: The in vivo and in vitro hepatocyte infection model portions of the study were performed by PhoenixBio (Higashi-Hiroshima, Japan). […] Mice were infected with HBV GTC virus (PhoenixBio; PBB004, Lot #160205) and had serum HBV titer levels greater than 1.0E+08 copies/mL seven days prior to study initiation. HBV-infected mice were treated once daily (p.o.) for seven days (Day 0–6) with deionized water for acclimation. […] Fifty μL of blood was collected from animals under isoflurane anesthesia via the retro-orbital plexus/sinus and centrifuged for serum collection for HBsAg and HBV DNA measurements described below. At termination of study (Day 56), 100–200 mg of tissue was harvested from the left lateral liver lobe of all animals.
For in vivo mouse studies, serum HBsAg concentrations were determined by SRL, Inc. (Tokyo, Japan) based on the Chemiluminescent Enzyme Immuno Assay (CLEIA) developed by Fujirebio (Lumipulse® Presto II).
HBV DNA was extracted from 5 μL of serum using the SMITEST EX-R&D Nucleic Acid Extraction Kit (Medical & Biological Laboratories, CO. LTD, Nagoya, Japan) and dissolved in 20 μL nuclease-free water (Thermo Fisher Scientific Inc., Waltham, MA). […] The average serum HBV DNA level was calculated from the values of the two separate wells. […]

Entries after “also recorded” stand apart in the source; their conditions may differ.

T1 sequence (Q86X55 2-608): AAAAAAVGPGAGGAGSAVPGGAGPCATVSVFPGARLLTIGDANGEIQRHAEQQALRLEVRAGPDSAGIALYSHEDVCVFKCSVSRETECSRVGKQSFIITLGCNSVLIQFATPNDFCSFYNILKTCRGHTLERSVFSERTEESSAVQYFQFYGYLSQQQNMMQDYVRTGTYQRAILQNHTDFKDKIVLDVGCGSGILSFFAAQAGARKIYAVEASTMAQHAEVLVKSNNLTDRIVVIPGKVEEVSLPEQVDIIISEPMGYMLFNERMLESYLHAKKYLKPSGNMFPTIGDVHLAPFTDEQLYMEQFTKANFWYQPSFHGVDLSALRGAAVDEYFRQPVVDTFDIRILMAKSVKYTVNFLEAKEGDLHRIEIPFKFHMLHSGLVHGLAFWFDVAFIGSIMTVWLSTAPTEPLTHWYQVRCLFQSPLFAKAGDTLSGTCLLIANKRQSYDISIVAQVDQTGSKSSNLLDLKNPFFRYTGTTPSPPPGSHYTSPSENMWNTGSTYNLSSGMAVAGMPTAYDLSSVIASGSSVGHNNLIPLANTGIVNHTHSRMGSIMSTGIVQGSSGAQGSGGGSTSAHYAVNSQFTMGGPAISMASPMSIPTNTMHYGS

Take `CCN(CCN(C)C)C(=O)CNCc1cc(C(=O)O)ccn1` [GS-080]: the IC50 in experiment [1] and in experiment [2] was above 100 µM in each case.
For the compound `CCOC(=O)c1ccnc(CNCC(=O)N(CC)CCN(C)C)c1` [GS-5801], in experiment [3], the “levels of cccDNA” value is recorded as “did not alter levels of cccDNA; also recorded: does not reduce levels of cccDNA; also recorded: no sign of reduced cccDNA”. For the same compound, the “antiviral efficacy: serum HBsAg and HBV DNA” value in experiment [4] is on record as “did not result in changes in the amounts of HBsAg or HBV DNA; also recorded: did not have antiviral activity at either dose tested”.
